Measurements from patent US20240270821A1, “GIP/GLP1/GCG TRI-RECEPTOR AGONISTS AND USES THEREOF” (priority 2023, published 2024).
Where two headings read alike, the source gives them in different places. Starred links: 1 amine or outer side, 2 acyl side, 3 side chain; linkers in the order of their positions; H or OH if unused. Non-standard residues stand in square brackets, D forms with d. Residues, ends and D or L forms follow the SMILES beside them. Groups on a side chain read outwards from the residue. No end group written: not given here. *: point of attachment. C20 diacid = O=C(O)CCCCCCCCCCCCCCCCCCC(=O)*; C18 diacid = O=C(O)CCCCCCCCCCCCCCCCC(=O)*; Phe(4-CN) = N#Cc1ccc(C[C@H](N)C(=O)O)cc1; αMePhe(2-F) = C[C@](N)(Cc1ccccc1F)C(=O)O; γGlu = O=C(O)[C@H](CCC(=O)[*:2])N[*:1]; αMe4Pal = C[C@](N)(Cc1ccncc1)C(=O)O; αMeY = C[C@](N)(Cc1ccc(O)cc1)C(=O)O; αMeF = C[C@](N)(Cc1ccccc1)C(=O)O; 4Pal = N[C@@H](Cc1ccncc1)C(=O)O; αMeL = CC(C)C[C@](C)(N)C(=O)O; αMeS = C[C@](N)(CO)C(=O)O; Orn = NCCC[C@H](N)C(=O)O; AEEA = NCCOCCOCC(=O)O; Aib = CC(C)(N)C(=O)O

Legend:
Type in all cases: cell-based
[1] = biological target: hGcgR (Homo sapiens, UniProt P47871); assay: Functional cAMP activation in the presence of 0.1% casein (no HSA); conditions: read-out: Relative cAMP EC50, hGcgR;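 further: intracellular cAMP rise after 30 min at 37 °C, read by HTRF against a cAMP standard curve, scaled from buffer only (0%) to maximal control ligand response (100%)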
Sequence of hGcgR (P47871 26-477): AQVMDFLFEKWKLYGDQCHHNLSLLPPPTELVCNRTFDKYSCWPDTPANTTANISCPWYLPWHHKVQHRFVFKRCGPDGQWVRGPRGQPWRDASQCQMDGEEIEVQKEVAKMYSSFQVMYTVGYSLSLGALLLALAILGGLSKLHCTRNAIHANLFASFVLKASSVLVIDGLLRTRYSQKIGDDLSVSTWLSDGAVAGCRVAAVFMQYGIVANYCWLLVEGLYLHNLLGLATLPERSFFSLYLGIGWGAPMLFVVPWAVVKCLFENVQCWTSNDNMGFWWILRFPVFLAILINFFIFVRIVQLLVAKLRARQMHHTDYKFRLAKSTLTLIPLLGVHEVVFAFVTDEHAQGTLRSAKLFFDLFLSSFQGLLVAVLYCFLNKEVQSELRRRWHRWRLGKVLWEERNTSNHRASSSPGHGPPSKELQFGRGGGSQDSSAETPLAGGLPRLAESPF

[2] = biological target: human GcgR (Homo sapiens, UniProt P47871); assay: Functional cAMP activity in the presence of 1% HSA; conditions: read-out: cAMP Rel EC50, hGcgR
Sequence of human GcgR (P47871 26-477): as above

[3] = biological target: T1, hGIPR (Homo sapiens, UniProt P48546); assay: Functional cAMP activity in the presence of 1% HSA; conditions: read-out: cAMP Rel EC50, hGIPR
T1 sequence (P48546 22-466): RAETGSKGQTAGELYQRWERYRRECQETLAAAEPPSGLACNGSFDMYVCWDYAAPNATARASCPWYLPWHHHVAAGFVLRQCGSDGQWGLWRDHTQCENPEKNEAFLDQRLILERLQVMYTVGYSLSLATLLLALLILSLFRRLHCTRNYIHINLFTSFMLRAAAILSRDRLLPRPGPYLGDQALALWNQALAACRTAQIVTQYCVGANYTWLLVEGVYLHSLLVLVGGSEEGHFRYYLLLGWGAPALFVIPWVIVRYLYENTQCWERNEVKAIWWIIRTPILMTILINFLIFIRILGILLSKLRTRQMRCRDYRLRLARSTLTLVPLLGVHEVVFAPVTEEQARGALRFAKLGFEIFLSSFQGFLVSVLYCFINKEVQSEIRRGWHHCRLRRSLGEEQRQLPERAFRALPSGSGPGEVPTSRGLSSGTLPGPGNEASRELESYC

[4] = biological target: T2, hGLP-1R (Homo sapiens, UniProt P43220); assay: Functional cAMP activity in the presence of 1% HSA; conditions: read-out: cAMP Rel EC50, hGLP-1R
T2 sequence (P43220 24-463): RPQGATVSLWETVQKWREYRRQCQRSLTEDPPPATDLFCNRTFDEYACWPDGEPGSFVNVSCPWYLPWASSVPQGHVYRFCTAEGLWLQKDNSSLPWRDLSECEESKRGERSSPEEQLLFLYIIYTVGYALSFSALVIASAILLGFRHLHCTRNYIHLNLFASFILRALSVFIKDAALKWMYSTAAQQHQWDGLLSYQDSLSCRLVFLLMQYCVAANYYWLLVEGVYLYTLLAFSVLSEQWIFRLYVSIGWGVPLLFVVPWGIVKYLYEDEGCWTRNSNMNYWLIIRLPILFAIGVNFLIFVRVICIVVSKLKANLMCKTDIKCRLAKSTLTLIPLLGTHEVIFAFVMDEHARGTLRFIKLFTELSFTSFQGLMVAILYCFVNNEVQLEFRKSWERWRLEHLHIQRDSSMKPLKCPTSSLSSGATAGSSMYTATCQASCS

[5] = biological target: T1, hGIPR; assay: Functional cAMP activation in the presence of 0.1% casein (no HSA); conditions: read-out: Relative cAMP EC50, hGIPR;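 on Relative cAMP EC50, hGIPR: intracellular cAMP rise after 30 min at 37 °C read by HTRF against a standard curve, scaled between buffer alone (0%) and top control ligand concentration (100%), four-parameter fit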;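 on Relative cAMP EC50, hGLP-1R: intracellular cAMP rise after 30 min at 37 °C read by HTRF, normalized between buffer only (0%) and maximal control ligand (100%), four-parameter variable-slope fit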
[6] = biological target: T2, hGLP-1R; assay: as above; conditions: read-out: Relative cAMP EC50, hGLP-1R
[7] = in the presence of 0.1% casein (no HSA), geometric mean

| Molecule | EC50 [1] | EC50 [2] | EC50 [3] | EC50 [4] | EC50 [5] | EC50 [6] | EC50 [1, 7] | EC50 [5, 7] | EC50 [6, 7] |
| --- | --- | --- | --- | --- | --- | --- | --- | --- | --- |
| H-Y[Aib]QGT[αMePhe(2-F)]TSD[4Pal][αMeS]I[αMeL]LD[Orn]K([γGlu-γGlu-C18 diacid])AQ[Aib][Orn]FI[dE][αMeY]LAEGGPSSGEPPPSGTE-NH2 [Example 544] | 2.71 nM | 171 nM | 2.4 nM | 43 nM | 0.041 nM | 0.623 nM | – | – | – |
| H-Y[Aib]QGT[αMePhe(2-F)]TSD[4Pal]SILLDKK([γGlu-γGlu-C18 diacid])AQ[Aib]AFIEYLEEGGPSSGAPPPSGEGE-NH2 [Example 621] | 6.81 nM | 901 nM | 7.31 nM | 111 nM | 0.0661 nM | 1.28 nM | – | – | – |
| H-Y[Aib]QGTFTSDFSK[αMeL]LDKK([AEEA-γGlu-C20 diacid])AQ[Aib]AFIEYLLEGGPSSGEPPPGEG[AEEA]-NH2 [Example 54] | – | 1940 nM | 168 nM | 1300 nM | – | – | 3.77 nM | 0.502 nM | 3.95 nM |
| H-Y[Aib]QGTFTSD[4Pal]SQ[αMeL]LD[Orn]K([dE-γGlu-C18 diacid])AQ[αMe4Pal]AFIE[αMeY]LLAGGPSSGAPPPSGSEEE-NH2 [Example 1082] | – | 1530 nM | 12.3 nM | 677 nM | – | – | 12.3 nM | 0.099 nM | 4.13 nM |
| Y[Aib]Q[dA]T[αMePhe(2-F)]TSD[4Pal]SI[αMeL]LD[Orn]K([AEEA-γGlu-C18 diacid])AQ[αMe4Pal][Orn]FI[dE][αMeY]LIEGGPSSGEPPPESE-NH2 [Example 765] | 0.952 nM | 111 nM | 44.6 nM | 26.1 nM | 0.0642 nM | 0.25 nM | – | – | – |
| H-Y[Aib]QGT[αMePhe(2-F)]TSD[4Pal][αMeS]I[αMeL]LD[Orn]K([γGlu-γGlu-C18 diacid])AQ[Aib][Orn]FI[dE][αMeY]LTEGGPSSGEPPPSGTGE-NH2 [Example 543] | 4.56 nM | 300 nM | 1.88 nM | 32 nM | 0.0319 nM | 0.41 nM | – | – | – |
| H-Y[Aib]QGTFTSDYSK[αMeL]LDKK([AEEA-γGlu-C20 diacid])AQQAFIEYLLAGGPSSGEPPPSGE-NH2 [Example 344] | – | 1440 nM | 70.7 nM | 523 nM | – | – | 9.05 nM | 0.406 nM | 2.56 nM |
| H-Y[Aib]QGT[αMeF]TSD[4Pal][αMeS]I[αMeL]LD[Orn]K([γGlu-γGlu-C18 diacid])AQ[αMe4Pal]EFI[dE][αMeY]LIEGGPSSGEPPPSGE-NH2 [Example 1171] | – | 233 nM | 0.718 nM | 52.9 nM | – | – | 2.19 nM | 0.00953 nM | 0.529 nM |
| H-Y[Aib]QGT[αMePhe(2-F)]TSD[4Pal][αMeS]I[αMeL]LD[Orn]K([AEEA-γGlu-γGlu-C18 diacid])AQ[αMe4Pal]EFI[dE][αMeY]LIEGGPSSGAPPPSGE-NH2 [Example 1176] | – | 229 nM | 0.462 nM | 43.8 nM | – | – | 1.8 nM | 0.00717 nM | 0.344 nM |
| H-Y[Aib]QGTFTSD[Phe(4-CN)]S[Orn][αMeL]LDKK([AEEA-γGlu-C18 diacid])AQ[Aib]AFIEYLLE[Aib]GHSSGAPPPSGS-NH2 [Example 190] | – | 331 nM | 59.4 nM | 172 nM | – | – | 2.95 nM | 0.306 nM | 1.41 nM |
| CC[C@H](C)[C@H](NC(=O)[C@H](CC(C)C)NC(=O)[C@H](Cc1ccc(O)cc1)NC(=O)[C@@H](CCC(=O)O)NC(=O)[C@@H](NC(=O)[C@H](Cc1ccccc1)NC(=O)[C@H](CCCN)NC(=O)C(C)(C)NC(=O)[C@H](CCC(N)=O)NC(=O)[C@H](C)NC(=O)[C@H](CCCCNC(=O)COCCOCCNC(=O)CC[C@H](NC(=O)CCCCCCCCCCCCCCCCC(=O)O)C(=O)O)NC(=O)[C@H](CCCN)NC(=O)[C@H](CC(=O)O)NC(=O)[C@H](CC(C)C)NC(=O)[C@](C)(CC(C)C)NC(=O)[C@@H](NC(=O)[C@](C)(CO)NC(=O)[C@H](Cc1ccncc1)NC(=O)[C@H](CC(=O)O)NC(=O)[C@H](CO)NC(=O)[C@@H](NC(=O)[C@](C)(Cc1ccccc1F)NC(=O)[C@@H](NC(=O)CNC(=O)[C@H](CCC(N)=O)NC(=O)C(C)(C)NC(=O)[C@@H](N)Cc1ccc(O)cc1)[C@@H](C)O)[C@@H](C)O)[C@@H](C)CC)[C@@H](C)CC)C(=O)N[C@@H](CCC(=O)O)C(=O)NCC(=O)NCC(=O)N1CCC[C@H]1C(=O)N[C@@H](CO)C(=O)N[C@@H](CO)C(=O)NCC(=O)N[C@@H](CCC(=O)O)C(=O)N1CCC[C@H]1C(=O)N1CCC[C@H]1C(=O)N1CCC[C@H]1C(=O)N[C@@H](CCC(=O)O)C(N)=O [Example 458] (H-Y[Aib]QGT[αMePhe(2-F)]TSD[4Pal][αMeS]I[αMeL]LD[Orn]K([AEEA-γGlu-C18 diacid])AQ[Aib][Orn]FI[dE]YLIEGGPSSGEPPPE-NH2) | 5.29 nM | 319 nM | 8.07 nM | 22.7 nM | 0.0448 nM | 0.347 nM | – | – | – |
| H-Y[Aib]QGTFTSD[4Pal]SQ[αMeL]LDKK([γGlu-γGlu-C18 diacid])AQ[Aib]AFIE[αMeY]LLEGGPSSGAPPPSGS-NH2 [Example 938] | – | 2830 nM | 21.5 nM | 263 nM | – | – | 13.3 nM | 0.13 nM | 1.84 nM |
| H-Y[Aib]QGTFTSD[4Pal]S[Orn][αMeL]LDKK([γGlu-γGlu-C18 diacid])AQ[αMe4Pal]AFIEYLIAGGESSGAPPPSGSEE-NH2 [Example 964] | – | 324 nM | 21.4 nM | 267 nM | – | – | 2.75 nM | 0.288 nM | 2.67 nM |
| H-Y[Aib]QGTFTSD[4Pal]SQ[αMeL]LDKK([AEEA-γGlu-γGlu-C18 diacid])AQ[αMe4Pal]AFIEYLIAGGPSSGEPPPSGS-NH2 [Example 947] | – | 727 nM | 16.6 nM | 150 nM | – | – | 6.99 nM | 0.289 nM | 1.7 nM |
| Y[Aib]QGT[αMePhe(2-F)]TSD[4Pal][αMeS]I[αMeL]LD[Orn]K([AEEA-γGlu-C18 diacid])YQ[αMe4Pal]EFI[dE][αMeY]LVEGGPSSGAPPPSGS-NH2 [Example 767] | 1.13 nM | 207 nM | 1.51 nM | 56.8 nM | 0.00792 nM | 0.299 nM | – | – | – |
| H-Y[Aib]QGT[αMePhe(2-F)]TSD[4Pal]SI[αMeL]LD[Orn]K([AEEA-γGlu-C18 diacid])AQ[αMe4Pal]EFI[dE][αMeY]LLEGGPSSGEPPPSGS-NH2 [Example 645] | 3.25 nM | 398 nM | 0.863 nM | 76.3 nM | 0.00724 nM | 0.596 nM | – | – | – |
| H-Y[Aib]QGTFTSD[4Pal]SQ[αMeL]LDKK([γGlu-γGlu-C18 diacid])AQ[αMe4Pal]AFIEYLIE[Aib]GPSSGAPPPSGSE-NH2 [Example 890] | – | 559 nM | 14.2 nM | 290 nM | – | – | 4.73 nM | 0.113 nM | 3.19 nM |
| H-Y[Aib]QGTFTSD[4Pal]SQ[αMeL]LD[Orn]K([γGlu-γGlu-C18 diacid])AQ[Aib]AFIE[αMeY]LLEGGPSSGAPPPSGSEE-NH2 [Example 946] | – | 1950 nM | 57.4 nM | 576 nM | – | – | 16.5 nM | 0.353 nM | 2.05 nM |
